Source: US20040077602A1, “Mixture composition for controlling ectoparasites” (Meiji Seika Kaisha, Ltd., priority 2002, published 2004)

System: Dermanyssus gallinae
Test: Miticidal effect against Dermanyssus gallinae (Pasteur pipette residual contact test, Test Example 1)
Format: in vivo
Conditions: single agent, sucking adult mites, 25° C.
From the text: Miticidal Effect Against Dermanyssus gallinae
The tip of a Pasteur pipette was sealed with Parafilm, and a sample compound diluted with acetone to a designated concentration was poured into the pipette from its top. The Parafilm in the tip of the pipette was removed one min after the pouring to discharge the test solution, and the pipette was air dried. Thereafter, an absorbent cotton was inserted into the upper end of the pipette, and sucking adult mites of Dermanyssus gallinae were released in the pipette. The tip of the pipette was sealed with Hematoseal, and the pipette was then placed in a desiccator containing a saturated ammonium sulfate solution in its bottom and was stored under fully darkened conditions at 25° C. The mites were observed under a stereomicroscope 4 hr after and 24 hr after the treatment to judge whether the mites were dead or survived, followed by determination of the miticidal rate (%).

Structure (SMILES)	Miticidal rate 4 hr after treatment (5 ppm)	Miticidal rate 24 hr after treatment (5 ppm)	Miticidal rate 4 hr after treatment (50 ppm)	Miticidal rate 24 hr after treatment (50 ppm)
CCc1nc2ccc(F)c(F)c2c(OC(=O)C2CC2)c1C [Compound 2, 2-ethyl-3-methyl-4-cyclopropanecarbonyloxy-5,6-difluoroquinoline]	40%	50%	–	–
COC(=O)Oc1c(C)c(C)nc2ccc(F)c(F)c12 [Compound 25, 2,3-dimethyl-4-methoxycarbonyloxy-5,6-difluoroquinoline]	70%	80%	–	–
CC1(C)C(C=C(Cl)Cl)C1C(=O)OC(C#N)c1ccc(F)c(Oc2ccccc2)c1 (stereo not shown) [Cyfluthrin, cyfluthrin]	–	–	0%	0%
CC1(C)C(C=C(Cl)c2ccc(Cl)cc2)C1C(=O)OC(C#N)c1ccc(F)c(Oc2ccccc2)c1 (stereo not shown) [Flumethrin, flumethrin]	–	–	5%	10%
CC1(C)C(C=C(Cl)Cl)C1C(=O)OCc1cccc(Oc2ccccc2)c1 (stereo not shown) [Permethrin, permethrin]	–	–	0%	0%
